One data set has as its system isolated pDC. The experiment in a line: IFN-alpha production upon isolated pDC stimulation. Type of data set: cell-based, human. The conditions noted are these: 0.5 μM ORN complexed to 10 μg/ml DOTAP, 16 h. How it is done:
FIG. 2 is a set of bar graphs depicting ORN induced cytokine production upon isolated pDC (FIG. 2a), monocytes (FIG. 2b) and mDC (FIG. 2c) stimulation. Cells were stimulated with 0.5 μM ORN complexed to 10 μg/ml DOTAP, 0.5 μM CpG ODN or DOTAP or media alone and IFN-alpha (FIG. 2a), TNF-alpha […] and IL-12p40 (FIG. 2c) were measured.
A similar assay testing different ORN sequences was performed using isolated pDC, monocytes and mDC stimulation. Cells were stimulated with 0.5 μM ORN complexed to 10 μg/ml DOTAP, 0.5 μM CpG ODN or DOTAP or media alone. After 16 h the supernatants were harvested and IFN-alpha, TNF-alpha and IL-12p40 levels were measured by ELISA.

The subject of a further data set is sv129 mice. As to the kind of experiment: Cytokine production in sv129 mice in vivo (whole blood ELISA, 3 hours). On the set-up: species or system mouse. The note with it: ORN formulated with DOTAP, bled after 3 hours. How it is done: (§1) Cells used were mouse macrophage cell line Raw264.7 cells (FIG. 12a), J774 cells (FIG. 12b), purified mouse CD11c+ cells (sv129 mice) (FIGS. 12c-12h) and mouse cells in vivo. Cytokine concentration was evaluated by ELISA.
(§2) Raw264.7 cells (FIG. 12a), J774 cells (FIG. 12b) and purified CD11c+ cells (Milteny, magnetic bead labeling) were isolated from sv129 mice splenocytes (FIGS. 12c-12e) and were stimulated with indicated concentrations of ORN complexed to DOTAP (50 μg/ml and diluted with ORN), R-848 or DOTAP alone (50 μg/ml). After 16 hours (FIGS. 12a and 12b) or 20 hours (FIGS. 12c-12e) supernatants were harvested and used for TNF-alpha (FIGS. 12a and 12b), IL-12p40 (FIG. 12c), IFN-alpha (FIG. 12d) and IP-10 (FIG. 12e) ELISA. Data represent one individual from at least three experiments (FIGS. 12a and 12b) and mean of 3 mice (FIGS. 12c-12e). To measure the ability of AU-rich ORN to stimulate mouse cells in vivo, sv129 mice (n=5/group) were injected with the indicated amounts of ORN formulated with DOTAP (60, 20 or 6 μg/ml), and bled after 3 hours. IL-12p40 (FIG. 12f), IFN-alpha (FIG. 12g) and IP-10 (FIG. 12h) production was measured within whole blood by ELISA.
On the technique in general: In an ELISA, binding on a coated surface is turned into a signal by an enzyme label.

Data set [1] deals with Raw264.7 cells, J774 cells, purified mouse CD11c+ cells. As to the kind of experiment: Cytokine production by mouse cells in vitro (ELISA). Type of data set: cell-based. The note with it: ORN complexed to DOTAP, 16 or 20 hours. How it is done: as §1, §2

Entries after “also recorded” stand apart in the source; their conditions may differ.

On to “U*U*A*U*U*A*U*U*A*U*U*A*U*U*A*U*U*A*U*U (UUAUUAUUAUUAUUAUUAUU; chemistry not fully specified) [SEQ ID NO: 13]”, for which the “IFN-alpha production upon pDC stimulation (in words)” value in the data set on isolated pDC is “strongly reduced IFN-alpha production; also recorded: no IFN-alpha cytokine production”. The “response of mouse cells in vivo (IL-12p40, IFN-alpha, IP-10 in whole blood)” value in the data set on sv129 mice is given as “do not Respond”. Besides, the “response of mouse macrophages/cells in vitro (TNF-alpha, IL-12p40, IFN-alpha, IP-10)” value in data set [1] is reported as “do not Respond”.

The record behind these values is US8354522B2, “Immunostimulatory oligoribonucleotides” (Coley Pharmaceutical GmbH, priority 2005, dated 2013).
